These results are taken from ChEMBL document CHEMBL1136434, “5-aryl-pyrazolo[3,4-b]pyridazines: potent inhibitors of glycogen synthase kinase-3 (GSK-3)” (Bioorg Med Chem Lett, 2003).

SMILES strings stand for the structures.

The target of this experiment is Cyclin-dependent kinase 2 (Homo sapiens) (UniProt P24941).
The compound `CCN1CCC(CC(=O)Nc2n[nH]c3nnc(-c4cccc(F)c4F)cc23)CC1` showed a cKi of 540 nM. Next, `O=C(Nc1n[nH]c2nnc(-c3cccc(F)c3F)cc12)C1CCCC1`: 5 nM.

`O=C(Nc1n[nH]c2nnc(-c3cccnc3)cc12)C1CC1` showed a cKi of 5 nM. Next, `CN(C)CCCC(=O)Nc1n[nH]c2nnc(-c3ccccc3)cc12`: 1700 nM; `CCN1CCC(C(=O)Nc2n[nH]c3nnc(-c4cccc(F)c4F)cc23)CC1`: 450 nM.
